Assay results as given in ChEMBL document CHEMBL1143348, “Design, synthesis, and cytoprotective effect of 2-aminothiazole analogues as potent poly(ADP-ribose) polymerase-1 inhibitors” (J Med Chem, 2009).

Tested on: PC-12
Assay: Cytoprotective activity against oxygen-glucose deprivation-induced apoptosis in rat PC12 assessed as damaged cells at 3 uM by flow cytometry using FITC-conjugated annexin V and propidium iodide staining relative to control
Format: functional
Conditions: not given

| Compound | Activity [%] |
| --- | --- |
| O=C(/C=C/c1ccccc1)Nc1nc(-c2ccccc2)cs1 | 3.9 |
| CCOC(=O)CCC(=O)Nc1nc(-c2ccccc2)cs1 | 5 |
| O=C(Nc1nc(-c2ccccc2)cs1)c1ccncc1 | 6 |

Tested on: PC-12
Assay: Cytoprotective activity against oxygen-glucose deprivation-induced apoptosis in rat PC12 assessed as early apoptotic cells at 3 uM by flow cytometry using FITC-conjugated annexin V and propidium iodide staining relative to control
Format: functional
Conditions: not given

| Compound | Activity [%] |
| --- | --- |
| O=C(/C=C/c1ccccc1)Nc1nc(-c2ccccc2)cs1 | 8.4 |
| CCOC(=O)CCC(=O)Nc1nc(-c2ccccc2)cs1 | 8.5 |
| O=C(Nc1nc(-c2ccccc2)cs1)c1ccncc1 | 8.6 |

Tested on: PC-12
Assay: Cytoprotective activity against oxygen-glucose deprivation-induced apoptosis in rat PC12 assessed as live cells at 3 uM by flow cytometry using FITC-conjugated annexin V and propidium iodide staining relative to control
Format: functional
Conditions: not given

| Compound | Activity [%] |
| --- | --- |
| O=C(/C=C/c1ccccc1)Nc1nc(-c2ccccc2)cs1 | 84 |
| CCOC(=O)CCC(=O)Nc1nc(-c2ccccc2)cs1 | 80.6 |
| O=C(Nc1nc(-c2ccccc2)cs1)c1ccncc1 | 73.8 |

Target: Poly [ADP-ribose] polymerase 1 (Homo sapiens, UniProt P09874)
Sequence (P09874 whole entry): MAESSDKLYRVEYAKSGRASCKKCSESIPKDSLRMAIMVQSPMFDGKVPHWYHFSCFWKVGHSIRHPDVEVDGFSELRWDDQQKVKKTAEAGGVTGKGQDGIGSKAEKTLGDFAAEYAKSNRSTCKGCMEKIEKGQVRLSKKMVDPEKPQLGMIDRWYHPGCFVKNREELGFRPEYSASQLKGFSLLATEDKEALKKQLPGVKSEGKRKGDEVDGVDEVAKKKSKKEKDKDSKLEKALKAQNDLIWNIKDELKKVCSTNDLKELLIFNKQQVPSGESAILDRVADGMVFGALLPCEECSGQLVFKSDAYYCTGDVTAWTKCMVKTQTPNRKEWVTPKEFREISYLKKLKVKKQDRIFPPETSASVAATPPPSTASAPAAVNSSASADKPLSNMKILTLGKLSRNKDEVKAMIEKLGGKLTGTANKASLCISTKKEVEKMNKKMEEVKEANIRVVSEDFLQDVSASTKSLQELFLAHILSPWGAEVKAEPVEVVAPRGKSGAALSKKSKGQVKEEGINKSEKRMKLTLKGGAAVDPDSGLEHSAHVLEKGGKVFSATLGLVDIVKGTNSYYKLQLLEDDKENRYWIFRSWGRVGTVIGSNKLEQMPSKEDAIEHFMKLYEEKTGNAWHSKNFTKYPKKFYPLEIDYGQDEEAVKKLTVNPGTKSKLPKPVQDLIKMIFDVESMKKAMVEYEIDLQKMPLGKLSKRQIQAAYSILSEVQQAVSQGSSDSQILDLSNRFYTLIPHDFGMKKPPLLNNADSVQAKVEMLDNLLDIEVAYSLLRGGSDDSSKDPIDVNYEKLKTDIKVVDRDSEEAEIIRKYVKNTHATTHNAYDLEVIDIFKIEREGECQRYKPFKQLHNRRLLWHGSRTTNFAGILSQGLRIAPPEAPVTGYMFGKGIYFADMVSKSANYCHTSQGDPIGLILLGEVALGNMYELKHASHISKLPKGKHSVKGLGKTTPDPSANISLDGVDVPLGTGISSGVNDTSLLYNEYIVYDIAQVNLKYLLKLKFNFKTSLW
Conditions: not given

| Compound | IC50 [nM] |
| --- | --- |
| O=c1[nH]c(CCCN2CC=C(c3ccccc3)CC2)nc2cccc(Cl)c12 | 682 |
| O=c1[nH]c2ccc(CCCN3CC=C(c4ccccc4)CC3)cc2c2ccccc12 | 119 |
| CCOC(=O)CCC(=O)Nc1nc2c(s1)CCCC2 | 12400 |
| O=C(/C=C/c1ccccc1)Nc1nc(-c2ccccc2)cs1 | 224 |
| CCOC(=O)CCC(=O)Nc1nc(-c2ccccc2)cs1 | 240 |
| Nc1ncnc2c1ncn2[C@@H]1O[C@H](COCNC(=O)CCC(=O)Nc2cccc3c2CNC3=O)[C@@H](O)[C@H]1O | 100 |
| Cc1sc(-c2ccccc2)nc1C(=O)Nc1cccc(Cc2n[nH]c(=O)c3ccccc23)c1 | 27 |
| O=C(CCn1c2c(c(=O)[nH]c1=O)CSCC2)NCC(=O)c1ccc(-c2ccnnc2)cc1 | 25 |
| O=C1NCCn2c(CN3CCCCC3)cc3cccc1c32 | 109 |
| O=c1[nH]c2ccc(CCN3CC=C(c4ccccc4)CC3)cc2c2ccccc12 | 46 |
| CCOc1ccc(-c2csc(/N=C/c3c[nH]c4ccccc34)n2)c(OCC)c1 | 240 |
| CN(C)CCCOc1ccc(-c2nc3cccc4c3n2CCNC4=O)cc1 | 63 |
| O=c1[nH]c(CCCN2CC=C(c3ccccc3)CC2)nc2c1CCC2 | 249 |
| CC1CCc2nc(CCCN3CC=C(c4ccccc4)CC3)[nH]c(=O)c2C1 (configuration not stated) | 274 |
| CCOC(=O)c1ccc(CCc2nc3cccc4c3n2CCNC4=O)cc1 | 97 |
| O=C(Nc1nc(-c2ccccc2)cs1)c1ccncc1 | 753 |
| COc1cc(/C=C/C(=O)Nc2nc(-c3ccccc3)cs2)cc(OC)c1 | 4530 |
| COc1cc(/C=C/C(=O)Nc2nc3c(s2)CCCC3)cc(OC)c1 | 9330 |

Tested on: PC-12
Assay: Cytoprotective activity in rat PC12 cells assessed as reduction in oxygen-glucose deprivation-induced LDH release at 3 uM
Format: functional
Set-up: scale not given: the % may be the effect or the level left
Conditions: not given

| Compound | Activity [%] |
| --- | --- |
| O=C(/C=C/c1ccccc1)Nc1nc(-c2ccccc2)cs1 | 33.1 |
| CCOC(=O)CCC(=O)Nc1nc(-c2ccccc2)cs1 | 34.6 |
| CCOc1ccc(-c2csc(/N=C/c3c[nH]c4ccccc34)n2)c(OCC)c1 | 28.4 |
| O=C(Nc1nc(-c2ccccc2)cs1)c1ccncc1 | 20.1 |
| COc1cc(/C=C/C(=O)Nc2nc(-c3ccccc3)cs2)cc(OC)c1 | 24 |

Tested on: PC-12
Assay: Cytoprotective activity against H2O2-induced cell death in rat PC12 cells by MTT assay after 6 hrs
Format: functional, cell-based
Conditions: PC-12, 6 h

| Compound | EC50 [nM] |
| --- | --- |
| CCOC(=O)CCC(=O)Nc1nc2c(s1)CCCC2 | > 3000 |
| O=C(/C=C/c1ccccc1)Nc1nc(-c2ccccc2)cs1 | 129 |
| CCOC(=O)CCC(=O)Nc1nc(-c2ccccc2)cs1 | 537 |
| CCOc1ccc(-c2csc(/N=C/c3c[nH]c4ccccc34)n2)c(OCC)c1 | 324 |
| O=C(Nc1nc(-c2ccccc2)cs1)c1ccncc1 | 1550 |
| COc1cc(/C=C/C(=O)Nc2nc(-c3ccccc3)cs2)cc(OC)c1 | 1120 |
| COc1cc(/C=C/C(=O)Nc2nc3c(s2)CCCC3)cc(OC)c1 | 2090 |

Tested on: PC-12
Assay: Cytoprotective activity against oxygen-glucose deprivation-induced apoptosis in rat PC12 assessed as late apoptotic cells at 3 uM by flow cytometry using FITC-conjugated annexin V and propidium iodide staining relative to control
Format: functional
Conditions: not given

| Compound | Activity [%] |
| --- | --- |
| O=C(/C=C/c1ccccc1)Nc1nc(-c2ccccc2)cs1 | 3.7 |
| CCOC(=O)CCC(=O)Nc1nc(-c2ccccc2)cs1 | 5.9 |
| O=C(Nc1nc(-c2ccccc2)cs1)c1ccncc1 | 11.6 |

Tested on: PC-12
Assay: Cytoprotective activity against oxygen-glucose deprivation-induced apoptosis in rat PC12 assessed as total apoptotic cells at 3 uM by flow cytometry using FITC-conjugated annexin V and propidium iodide staining relative to control
Format: functional
Conditions: not given

| Compound | Activity [%] |
| --- | --- |
| O=C(/C=C/c1ccccc1)Nc1nc(-c2ccccc2)cs1 | 64.4 |
| CCOC(=O)CCC(=O)Nc1nc(-c2ccccc2)cs1 | 70.7 |
| O=C(Nc1nc(-c2ccccc2)cs1)c1ccncc1 | 45.1 |

Tested on: PC-12
Assay: Cytoprotective activity against oxygen-glucose deprivation-induced cell death in rat PC12 cells by MTT assay
Format: functional, cell-based
Conditions: not given

| Compound | EC50 [nM] |
| --- | --- |
| CCOC(=O)CCC(=O)Nc1nc2c(s1)CCCC2 | 961 |
| O=C(/C=C/c1ccccc1)Nc1nc(-c2ccccc2)cs1 | 559 |
| CCOC(=O)CCC(=O)Nc1nc(-c2ccccc2)cs1 | 143 |
| CCOc1ccc(-c2csc(/N=C/c3c[nH]c4ccccc34)n2)c(OCC)c1 | 361 |
| O=C(Nc1nc(-c2ccccc2)cs1)c1ccncc1 | 191 |
| COc1cc(/C=C/C(=O)Nc2nc(-c3ccccc3)cs2)cc(OC)c1 | 527 |
| COc1cc(/C=C/C(=O)Nc2nc3c(s2)CCCC3)cc(OC)c1 | 1040 |
